{
  "source": "patent US5447957A",
  "about": "“Anti-inflammatory compounds” (SmithKline Beecham Corp., priority 1994, dated 1995)",
  "key": {"CoA-IT": {"tested_on": "CoA-IT", "experiment": "Assay (b): CoA-IT activity in U937 cell microsomes", "format": "biochemical, human", "settings": "generally at 50 μM or less", "description": "Assay (b): CoA-IT Activity\nThe following is a method to measure CoA-IT activity and the effects of compounds on CoA-IT activity. The assay is based upon mixing cellular material containing CoA-IT activity with a stable lyso phospholipid such as […] and measuring the production of phospholipid product such as […] occurring in the absence of added CoA or CoA-fatty acids.\nAny inflammatory cell that contains high levels of CoA-IT activity can be used, such as neutrophils, macrophages or cell lines such as U937 cells. […] Cells were grown without differentiation (basal state) by any agent, such as dimethyl sulfoxide. As used herein, \"inflammatory cells\" include, but are not limited to neutrophils, macrophages, monocytes, lymphocytes, eosinophils, basophils, and mast cells.\nMicrosomes were prepared using standard techniques. In this case, cells were washed with a buffer of 250 mM sucrose, 10 mM Tris, 1 mM EGTA, 1 mM MgCl2, pH 7.4 and ruptured by N2 cavitation (750 psi, 10 minutes). The ruptured cells were centrifuged 1000× g, 5 minutes. The resulting supernatant was centrifuged at 20,000×g,~20 minutes. Microsomes were prepared from this supernatant by centrifugation at 100,000× g, 60 minutes. The resulting pellet was washed once with assay buffer (150 mM NaCl, 10 mM Na2 KPO4, 1 mM EGTA, pH 7.4), recentrifuged and the pellet resuspended in assay buffer (4-20 mg protein/ml) and was stored at -80° C. until assayed.\nCoA-IT activity was measured in 1.5 ml centrifuge tubes in a total volume of 100 ul. Microsomes were diluted in assay buffer to the desired protein concentration (6-20 ug/tube). The reaction was initiated by addition of [3H] 1-alkyl-2-lyso-sn-glycero-3-phosphocholine (GPC)(~0.1 uCi/tube) and 1 μM final cold 1-alkyl-2-lyso-GPC in assay buffer with 0.25 mg/ml fatty acid-poor bovine serumalbumin (BSA) (Calbiochem, La Jolla, Calif.). [3H]1-alkyl-2-lyso-GPC, approximately 50 Ci/mmol, was from NEN-Dupont (Boston, Mass.) and cold 1-alkyl-2-lyso-GPC was from Biomol (Plymouth Meeting, Penn.). Microsomes were pretreated with desired agents for the desired time (10 minutes) before the addition of [3H]1-alkyl-2-lyso-GPC. The reaction was run for the desired time (10 minutes) at 37° C. The reaction was stopped and the lipids extracted by addition of 100 ul of chloroform:methanol (1:2, v/v) followed by 100 ul of chloroform and 100 ul of 1M KCI. The samples were vortexed and centrifuged at high speed in a microfuge for 2-3 minutes. An aliquot of the chloroform-extracted materials were separated, usually by TLC in chloroform/methanol/acetic acid/water (50:25:8:4, v/v), visualized by radioscanning (Bioscan) and the product, [3H] 1-alkyl-2-acyl-GPC, was scraped and quantified by liquid scintillation spectroscopy. […] Other methods can be used to separate substrate from product, including but not limited to column chromatography, affinity chromatography and post reaction derivitization."}, "human neutrophils": {"tested_on": "human neutrophils", "experiment": "Assay (d): Production of Platelet-Activating Factor (PAF), A23187-challenged neutrophils", "format": "cell-based", "settings": "A23187 2 μM", "description": "Assay (d): Assay for Production of Platelet-Activating Factor (PAF)\nBlood is obtained from normal humans and neutrophils were isolated as described for the arachidonic acid release assay, above. The final leukocyte preparation should be of greater than 95% purity and viability.\nNeutrophils were suspended in PBS at concentrations of 5 to 20×10^6 cells per ml. Cells were added to test tubes and treated with the desired compounds for 5 to 10 minutes, then challenged with calcium ionophore A23187, 2 μM and 20-30 μCi of [3H]acetic acid (NEN-Dupont, Boston, Mass.), or the vehicle of PBS with 0.25-1 mg/ml. After 5 to 20 minutes, the reactions were terminated by addition of an equal volume of chloroform:methanol (1:2, v/v) to the samples and the lipids were extracted by addition of equal volumes of chloroform and distilled water. The samples were vortexed and centrifuged at high speed and the chloroform layer removed to a clean tube.\nThe chloroform from each tube was evaporated to dryness and the material suspended in a small volume of chloroform or chloroform:methanol (25-100 μl) and the total material spotted on a Silica TLC plate. The plates were developed in chloroform/methanol/acetic acid/water (50:25:8:4, v/v) visualized by radioscanning (Bioscan) and the product, [^3 H]PAF, was scraped and quantified by liquid scintillation spectroscopy. […]"}, "human monocytes": {"tested_on": "human monocytes", "experiment": "Assay (f): stimulated eicosanoid (PGE2, LTC4) release by human monocytes", "format": "cell-based", "settings": "Monocyte, 0.25 h, A23187 1 μM, 15 min", "description": "Assay (f): Measurement of stimulated eicosanoid release by human monocytes.\nLeukocyte-rich leukopaks obtained from Biological Specialties (Lansdale, Pa.) were collected from male volunteers who were not taking anti-inflammatory drugs. Leukopaks were centrifuged (90× g for 15 min) twice to remove the platelet-rich plasma. The cell pellet was washed by centrifugation and resuspended in HBSS without Ca^2+ or Mg^2+. Histopaque 1077 was layered under the cell suspension and centrifuged at 400× g for 30 min to obtain the buffy coat. The interfacial buffy coat, containing monocytes and lymphocytes, was removed and saved. The buffy coat was washed twice with HBSS without Ca^2+ or Mg^2+ by centrifugation. The cell pellet (4-6×10^8 cells/30 mls) was resuspended in iso-osmotic media (RPMI-1640, 10% heat inactivated fetal bovine serum (FBS), 0.2 mM L-glutamine, 2.5 mM HEPES) and layered over an equal volume of 46% Percol mixture (10X PBS/Percol; 9.25/0.75) and 54% iso-osmotic media and centrifuged for 30 min at 1000× g (Marshall and Roshak, Biochem. Cell Biol. 71: 331-339, 1993). The monocyte population located at the interface of the Percoll gradient was removed and washed twice in HBSS without Ca^2+ or Mg^2+.\nMonocytes (5×10^6 /ml) were incubated as a suspension in serum-free RPMI- 1640 medium containing the vehicle DMSO (<1%) or drug for 30 min at […] after which vehicle or stimuli was added for the indicated time. The stimulating agent is solubilized in DMSO and appropriate vehicle controls were included in all experiments. The amount of stimuli was chosen from the linear portion of a concentration versus product curve usually representing 60-80% maximal stimulation over the indicated incubation time at 37° C. (A23187, 1 μM,(15 min). The reaction was terminated by reduction of pH through addition of citric acid and centrifugation (10 min, 400× g, 4° C.). Cell viability was monitored before and after experiments using trypan blue exclusion. The cell-free media was decanted and stored at -70° C. until analyzed. Prostaglandin E2 and LTC4 were directly measured in cell-free media using enzyme immunoassay (EIA) kits purchased from Caymen Chemical Co. (Ann Arbor, Mich.). Sample or standard dilutions were made with appropriate media and analyzed in triplicate. Results were obtained by extrapolation from a standard curve prepared in the media and expressed as pg or ng/ml of sample."}, "[1]": {"settings": "read-out: IC50 for LTC4 release"}},
  "note": "pIC50: −log10 of the molar value. Like-named read-outs stand apart in the source and are kept apart here.",
  "data": [
    {"smiles": "O=C(Nc1cc(C(F)(F)F)cc(C(F)(F)F)c1)Nc1ccccc1Oc1ccccc1C(=O)O", "note": "[Example 2, 2-[2-[3-[3,5-Bis (trifluoromethyl)phenyl]ureido]phenoxy]benzoic acid]", "values": [
      {"measurement": "inhibition of CoA-IT activity in the microsomal CoA-IT assay", "setting": "CoA-IT", "value": "inhibit CoA-IT activity"},
      {"measurement": "inhibition of PAF production", "setting": "human neutrophils", "value": "positive activity"},
      {"measurement": "pIC50", "setting": "human monocytes; [1]", "value": "~6.00"},
      {"measurement": "pIC50", "setting": "human monocytes; read-out: IC50 of PGE2 release", "value": "6.00 to 7.00"}
    ]},
    {"smiles": "O=C(Nc1cc(C(F)(F)F)cc(C(F)(F)F)c1)Nc1cc(C(F)(F)F)ccc1Oc1ccccc1C(=O)O", "note": "[Example 7, 2-[2-[3-[3,5-Bis(trifluoromethyl)phenyl]ureido]-4-trifluoromethylphenoxy]benzoic acid]", "values": [
      {"measurement": "inhibition of CoA-IT activity in the microsomal CoA-IT assay", "setting": "CoA-IT", "value": "inhibit CoA-IT activity"},
      {"measurement": "inhibition of PAF production", "setting": "human neutrophils", "value": "positive activity"},
      {"measurement": "pIC50", "setting": "human monocytes; [1]", "value": "5.70 to 6.00"},
      {"measurement": "pIC50", "setting": "human monocytes; read-out: IC50 of PGE2 release", "value": "< 5.00"}
    ]}
  ]
}
